Measured values as given in ChEMBL document CHEMBL1126296, “Orally active aldose reductase inhibitors: indazoleacetic, oxopyridazineacetic, and oxopyridopyridazineacetic acid derivatives” (J Med Chem, 1992).
Activity calls are given as the source filed them. The rule behind the calls is not given here.

Key:
Rattus norvegicus [1] = test: In vivo inhibition of sorbitol accumulation in sciatic nerve and lens of diabetic rat at a dose of 10 mg/kg.; format: functional
[2] = target: Aldo-keto reductase family 1 member B1 (Homo sapiens, UniProt P15121); test: Inhibitory activity against aldose reductase isolated from human placenta
Rattus norvegicus [3] = test: In vivo inhibition of sorbitol accumulation in sciatic nerve and lens of diabetic rat at a dose of 10 mg/kg; NS=not significant; format: functional, organism-based; set-up: dose 10 mg/kg
Rattus norvegicus [4] = test: In vivo inhibition of sorbitol accumulation in sciatic nerve and lens of diabetic rat at a dose of 100 mg/kg.; format: functional
Rattus norvegicus [5] = test: In vivo inhibition of sorbitol accumulation in sciatic nerve and lens of diabetic rat at a dose of 25 mg/kg; NS=not significant; format: functional, organism-based; set-up: dose 25 mg/kg
Rattus norvegicus [6] = test: In vivo inhibition of sorbitol accumulation in sciatic nerve and lens of diabetic rat at a dose of 25 mg/kg.; format: functional

Compound	IC50 [2] [nM]	inhibition in vivo at 25 mg/kg (Rattus norvegicus [6]) [%]	further results
O=C(O)Cc1nn(Cc2nc3cc(C(F)(F)F)ccc3s2)c(=O)c2ccccc12 [ZOPOLRESTAT]	–	–	inhibition in vivo at 10 mg/kg (Rattus norvegicus [1]): 80%
O=C(O)Cc1nn(Cc2nc3cc(F)cc(F)c3s2)c(=O)c2c1CCCC2	4	–	–
O=C(O)Cc1nn(Cc2nc3cc(C(F)(F)F)ccc3s2)c(=O)c2ncccc12	2.1	–	inhibition (Rattus norvegicus [3]): inactive
O=C(O)Cc1nn(Cc2nc3ccccc3s2)c(=O)c2cc3ccccc3cc12	46	–	inhibition in vivo at 100 mg/kg (Rattus norvegicus [4]): 48%
O=C(O)Cc1nn(Cc2ccc(Br)cc2F)c(=O)c2ncccc12	760	–	inhibition (Rattus norvegicus [5]): inactive
O=C(O)Cc1nn(Cc2nc3ccccc3s2)c2ccccc12	680	52	inhibition in vivo at 100 mg/kg (Rattus norvegicus [4]): 77%
O=C(O)Cc1nn(Cc2nc3cc(F)cc(F)c3s2)c2ccccc12	30	61	–
O=C(O)Cc1nn(Cc2nc3cc(C(F)(F)F)ccc3s2)c2ccccc12	33	59	–
O=C(O)Cc1nn(Cc2nc3cc(F)cc(F)c3s2)c2ccc(Cl)cc12	110	69	–
O=C(O)Cc1nn(Cc2ccc(Br)cc2F)c(=O)c2c1CCCC2	32	87	–
O=C(O)Cc1nn(Cc2nc3cc(F)ccc3s2)c2ccc(Cl)cc12	4.6	34	–
O=C(O)Cc1nn(Cc2nc3ccccc3s2)c2ccc(Cl)cc12	58	–	inhibition (Rattus norvegicus [3]): inactive
Cc1c(CC(=O)O)nn(Cc2nc(-c3cccc(F)c3F)no2)c(=O)c1C	3.3	–	inhibition in vivo at 10 mg/kg (Rattus norvegicus [1]): 26%
O=C(O)Cc1nn(Cc2nc3cc(C(F)(F)F)ccc3s2)c2ccc(Cl)cc12	35	–	inhibition (Rattus norvegicus [5]): inactive
O=C(O)Cc1ccc(=O)n(Cc2nc3cc(F)cc(F)c3s2)n1	< 10	32	–
O=C(O)Cc1nn(Cc2nc3ccccc3o2)c2ccc(Cl)cc12	100	–	–
Cc1c(CC(=O)O)nn(Cc2nc3cc(F)cc(F)c3s2)c(=O)c1C	5	–	inhibition in vivo at 10 mg/kg (Rattus norvegicus [1]): 76%
O=C(O)Cc1nn(Cc2nc3ccccc3s2)c(=O)c2ccccc12	–	67	–
O=C(O)Cc1nn(Cc2ccc(Br)cc2F)c(=O)c2cc3ccccc3cc12	420	–	–
Cc1cc(=O)n(Cc2nc3cc(C(F)(F)F)ccc3s2)nc1CC(=O)O	18	–	inhibition (Rattus norvegicus [5]): inactive
O=C(O)Cc1nn(Cc2nc3cc(F)cc(F)c3s2)c(=O)c2cccnc12	26	68	–
O=C(O)Cc1nn(Cc2nc3cc(F)ccc3s2)c(=O)c2cccnc12	< 10	64	–
O=C(O)Cc1nn(Cc2nc3cc(C(F)(F)F)ccc3s2)c(=O)c2c1CCCC2	5.2	89	inhibition in vivo at 10 mg/kg (Rattus norvegicus [1]): 61%
O=C(O)Cc1nn(Cc2ccc(Br)cc2F)c2ccccc12	6200	–	–
O=C(O)Cc1nn(Cc2nc3cc(C(F)(F)F)ccc3s2)c(=O)c2cccnc12	41	74	–
Cc1c(CC(=O)O)nn(Cc2ccc(Br)cc2F)c(=O)c1C	290	–	inhibition (Rattus norvegicus [3]): inactive
O=C(O)Cc1nn(Cc2nc3cc(Br)ccc3s2)c2ccc(Cl)cc12	65	56	–
Cc1c(CC(=O)O)nn(Cc2nc3cc(C(F)(F)F)ccc3s2)c(=O)c1C	16	81	–
O=C(O)Cc1ccc(=O)n(Cc2nc3cc(C(F)(F)F)ccc3s2)n1	340	–	inhibition (Rattus norvegicus [5]): inactive
